“Also recorded” adds a separate entry of the source.
How the values were obtained:
[1] = system: early-stage melanoma, melanocytes, in vitro transformed 293T cells; settings: cited from earlier work
[2] = system: SW-1 cells; assay: Caspase and PARP cleavage immunoblot in SW-1 cells; format: cell-based, mouse; settings: peptides by transfection, UCN-01 (5 μm) 24 hours
Procedure: Human melanoma cells LU1205 were transfected with the nucleic acid molecules that encode either ATF2^51-100 peptide or ATF2^51-60 peptide. Twenty-four hours after transfection, cells were treated with of UCN-01 (5 μm) for 24 hours. Immunoblotting analysis was performed using caspase 9 and PARP antibodies, and β-actin was used as a loading control (FIG. 6A). The same experiment was performed in SW-1 cells (FIG. 6B). Stars point to the position of the uncleaved form whereas arrows point to the cleaved products.
(§1) Effect on Apoptosis. Assessed next was the degree of apoptosis in SW1 cells under normal growth (spontaneous) as well as following treatment with chemotherapeutic drugs. Cells were analyzed to detect spontaneous (basal) or induced apoptosis [following treatment with the kinase inhibitor UCN-01 (kindly provided by NCI repository) for 36 hours]. Apoptosis was measured by using FACS (Ivanov et al., Mol. Cell, 2001, 7:517-28) to quantify the percentage of hypodiploid nuclei undergoing DNA fragmentation. Nucleation as a marker of apoptosis was monitored via DAPI staining of cells at indicated time points after their treatment. Caspase activity was monitored by immunoblots using antibodies to caspase 9 (Santa Cruz). PARP cleavage was monitored by corresponding antibodies (PharMingen).

[3] = system: LU1205 human melanoma cells; assay: Growth of LU1205 human melanoma tumors expressing ATF2 peptide in nude mice; format: in vivo, mouse
Description: LU1205 or FEMX human melanoma tumor-derived cell lines that constitutively express ATF2^51-100 peptide or that contain control vector were each injected subcutaneously into a group of 6 nude mice (10^6 cells per injection) per cell line per experiment. […] The data shown represent three experiments. Bars represent standard deviation, P<0.0015. […] The data shown represent three experiments. Bars represent standard deviation, P<0.0021.
The ability of expressed ATF2^51-100 peptide to affect the tumorigenicity of human melanoma cells in vivo was examined. To this end, growth of LU1205 and FEMX human melanoma cells were monitored in nude mice in the presence or absence of treatment that induced apoptosis in vitro. LU1205, FEMX and SW-1 cells that express control or ATF2^51-100 peptide were trypsinized, resuspended in PBS and injected SC (1×10^6) into 6-7 week old mice in the lower flank. When the tumor reached the size of about 50 mm^3, 10 μM of SB203580 was injected into 4 areas of the LU1205 tumors every 4 days during a 2 week period. For FEMX tumors, UCN-01 (5 mg/Kg) was fed by gavage, three times per week for a total of 2 weeks. Tumor growth was monitored every two days. Tissue samples were fixed in formalin and embedded in paraffin. Hematoxylin and eosin (H&E), TUNEL staining was performed as previously described (Bhoumik et al., Clin. Cancer Res., 2001; 2:331-342).

[4] = system: SW1 melanoma cells; assay: Apoptosis of SW1 cells by FACS (hypodiploid nuclei); format: cell-based, mouse; settings: SW1 cells expressing peptide, given as control-to-peptide increase
Procedure: SW1 cells constitutively expressing the indicated ATF2 peptides were transfected with either TRE-Luc (FIG. 5A) or with Jun2-Luc (FIG. 5B), and proteins were prepared for analysis of luciferase activity after 18 hours. Analysis was performed in duplicate, and the data reflect three independent experiments. SW1 cells expressing the ATF2 peptides were analyzed to establish the degree of spontaneous (basal) apoptosis as well as apoptosis 24 hours following treatment with the chemotherapeutic drug UCN-01 (FIG. 5C). The data represent triplicate analysis reproduced three times.
as §1

Substance: ATF2^51-100: amino-terminal peptide of ATF2, amino acid residue 51 to 100 (about a 50 amino acid peptide), expressed in tumor cells (MTLKFGPARNDSVIVADQTPTPTRFLKNCEEVGLFNELASPFENEFKKAS; UniProt P15336 51-100, looked up, fragment)
- sensitization by ATF2 peptide [1]: not in early-stage melanoma, or melanocytes, or in in vitro transformed 293T cells
- activation of caspase 9 (cleavage fragments) [2]: activation of caspase 9 even prior to treatment with UCN-01
- tumor growth rate ([3]; LU1205 cells constitutively expressing peptide, SC in nude mice): reduced the growth rates; also recorded: inhibits growth
- tumor growth with additional treatment ([3]; peptide-expressing LU1205 tumors plus p38 inhibitor SB203580 10 μM intratumoral): additional decrease in growth
- spontaneous (basal) apoptosis ([4]; absence of treatment): 12-55%
- UCN-01-induced apoptosis ([4]; treated with UCN-01): 20-77%

Reference: patent US20090281025A1, “INHIBITION OF TUMOR GROWTH AND METASTASIS BY ATF2-DERIVED PEPTIDES” (Mount Sinai School Of Medicine of New York University, priority 2004, published 2009)
